Reference: patent publication US10392422B2, “Macrocyclic broad spectrum antibiotics” (priority 2014, dated 2019)
In brackets after ≈: the same amount, converted by molar mass. Read-outs that look alike come from different tables or passages of the source.

Tests used:
Assay in all cases: MIC, broth micro-dilution technique (CLSI)
[1] = system: Methicillin Resistant Staphylococcus aureus strain USA 300 (NRS384); type: cell-based; details: for MIC: Staphylococcus aureus, 22 h, read-out: MIC (μg/mL) S. aureus
How it was run: (§1)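 Cation-adjusted MHB + 0.002% Tween-80; 10-point 2-fold series starting 64 μg/ml (modified protocol: 4 μg/mL). Final inoculum OD600 0.0005; 35° C, 22 h. MIC per CLSI M07-A8 broth microdilution.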

[2] = system: Escherichia coli MC4100 harboring the IMP4213; type: cell-based; details: 35° C., 22 hours; for MIC: Escherichia coli, 22 h
How it was run: as §1

[3] = system: MRSA COL (NRS100); type: cell-based, Staphylococcus aureus; details: for MIC: Staphylococcus aureus, 22 h, read-out: MIC (μg/mL) (COL)
How it was run: as §1

[4] = Table 2 modified protocol: serial 2-fold dilutions starting from 4 μg/mL, 35° C., 22 hours
[5] = read-out: MIC (μg/mL) E. coli, Table 2 modified protocol: serial 2-fold dilutions starting from 4 μg/mL
[6] = Table 2 modified protocol: serial 2-fold dilutions starting from 4 μg/mL
[7] = Table 1 protocol: serial 2-fold dilutions starting from 64 μg/ml, 35° C., 22 hours

| SMILES | MIC (μg/mL) S. aureus [1, 4] | MIC (μg/mL) E. coli [2, 6] | MIC (μg/mL) (COL) [3, 4] | further results |
| --- | --- | --- | --- | --- |
| C[C@@H]1NC(=O)[C@@H](N(C)C(=O)[C@H](CCCCN)NC(=O)c2ccc(-c3ccc(Cl)cc3)cc2)c2ccc(O)c(c2)-c2cc(ccc2O)C[C@@H](C(=O)NCC(=O)CF)NC1=O [Compound 253] |  |  |  | MIC [1, 4]: > 4 µg/mL; MIC [2, 5]: > 4 µg/mL; MIC [3, 4]: 4 µg/mL (≈ 4.82 µM) |
| CC(=O)OCC(=O)CNC(=O)[C@@H]1Cc2ccc(O)c(c2)-c2cc(ccc2O)[C@H](N(C)C(=O)[C@H](CCCCN)NC(=O)c2ccc(-c3ccc(Cl)cc3)cc2)C(=O)N[C@@H](C)C(=O)N1 [Compound 254] |  |  |  | MIC [1, 4]: 4 µg/mL (≈ 4.6 µM); MIC [2, 5]: > 4 µg/mL; MIC [3, 4]: 2 µg/mL (≈ 2.3 µM) |
| C[C@H](NC(=O)[C@@H]1Cc2ccc(O)c(c2)-c2cc(ccc2O)[C@H](N(C)C(=O)[C@H](CCCCN)NC(=O)c2ccc(-c3ccc(Cl)cc3)cc2)C(=O)N[C@@H](C)C(=O)N1)C(=O)CN=[N+]=[N-] [Compound 255] |  |  |  | MIC [1]: 12 µg/mL (≈ 13.9 µM); MIC ([2]; read-out: MIC (μg/mL) E. coli, Table 1 protocol: serial 2-fold dilutions starting from 64 μg/ml): > 64 µg/mL; MIC [3]: 3 µg/mL (≈ 3.46 µM) |
| CCCCCCCCCCS(=O)(=O)N[C@@H](CCCCN)C(=O)N(C)[C@@H]1C(=O)N[C@@H](C)C(=O)N[C@H](C(=O)N[C@@H](C)C(C)=O)Cc2ccc(OCCN)c(c2)-c2cc1ccc2OCCN.O=CO [Compound 256] | 0.063 µg/mL | >4 µg/mL | 0.016 µg/mL |  |
| CCCCCCCCCCS(=O)(=O)N[C@@H](CCCCN)C(=O)N(C)[C@@H]1C(=O)N[C@@H](C)C(=O)N[C@H](C(=O)N[C@@H](C)C(=O)c2nnn[nH]2)Cc2ccc(OCCN)c(c2)-c2cc1ccc2OCCN.O=CO [Compound 258] | 0.047 µg/mL | 4 µg/mL | 0.012 µg/mL |  |
| CCCCCCCCS(=O)(=O)N[C@@H](CO)C(=O)N(C)[C@@H]1C(=O)N[C@@H](C)C(=O)N[C@H](C(=O)N[C@@H](C)C(C)=O)Cc2ccc(OCCN)c(c2)-c2cc1ccc2OCCN.O=CO [Compound 259] | 0.75 µg/mL | >4 µg/mL | 0.38 µg/mL |  |
| CCCCCCCCCC(=O)N[C@@H](CCSC)C(=O)N(C)[C@@H]1C(=O)N[C@@H](C)C(=O)N[C@H](C(=O)N[C@@H](C)C(C)=O)Cc2ccc(OCCN)c(c2)-c2cc1ccc2OCCN.O=CO [Compound 261] | 1.5 µg/mL | >4 µg/mL | 0.38 µg/mL |  |
| CCCCCCCCCC(=O)N[C@@H](CC[S+](C)[O-])C(=O)N(C)[C@@H]1C(=O)N[C@@H](C)C(=O)N[C@H](C(=O)N[C@@H](C)C(C)=O)Cc2ccc(OCCN)c(c2)-c2cc1ccc2OCCN (stereo partly drawn) [Compound 262] | >4 µg/mL | >4 µg/mL | 2 µg/mL (≈ 2.3 µM) |  |
| CCCCCCCCCC(=O)N[C@@H](CO)C(=O)N(C)[C@@H]1C(=O)N[C@@H](C)C(=O)N[C@H](C(=O)N[C@@H](C)C(C)=O)Cc2ccc(OCCN)c(c2)-c2cc1ccc2OCCN.O=CO [Compound 264] | 2 µg/mL | >4 µg/mL | 0.75 µg/mL |  |
| CCCCCCCCCC(=O)N[C@@H](CO)C(=O)N(C)[C@@H]1C(=O)N[C@@H](C)C(=O)N[C@H](C(=O)N[C@@H](C)C(=O)c2nnn[nH]2)Cc2ccc(OCCN)c(c2)-c2cc1ccc2OCCN.O=CO [Compound 265] | 1 µg/mL | 4 µg/mL | 0.25 µg/mL |  |
| CCCCCCCCCC(=O)N[C@@H](CC(N)=O)C(=O)N(C)[C@@H]1C(=O)N[C@@H](C)C(=O)N[C@H](C(=O)N[C@@H](C)C(C)=O)Cc2ccc(OCCN)c(c2)-c2cc1ccc2OCCN.O=CO [Compound 266] | 4 µg/mL | >4 µg/mL | 1.5 µg/mL |  |
| CCCCCCCCCC(=O)NCC(=O)N(C)[C@@H]1C(=O)N[C@@H](C)C(=O)N[C@H](C(=O)N[C@@H](C)C(C)=O)Cc2ccc(OCCN)c(c2)-c2cc1ccc2OCCN.O=CO [Compound 267] | 1.5 µg/mL | >4 µg/mL | 0.5 µg/mL |  |
| CCCCCCCCCCNCCC(=O)N(C)[C@@H]1C(=O)N[C@@H](C)C(=O)N[C@H](C(=O)N[C@@H](C)C(C)=O)Cc2ccc(OCCN)c(c2)-c2cc1ccc2OCCN.O=CO [Compound 268] | 2.1 µg/mL | 2.5 µg/mL | 1 µg/mL |  |
| CCCCCCCCCCNCC(=O)N(C)[C@@H]1C(=O)N[C@@H](C)C(=O)N[C@H](C(=O)N[C@@H](C)C(C)=O)Cc2ccc(OCCN)c(c2)-c2cc1ccc2OCCN.O=CO [Compound 269] | 0.38 µg/mL | >4 µg/mL | 0.13 µg/mL |  |
| CCCCCCCCCCNCCC(=O)N[C@@H](CCCCN)C(=O)N(C)[C@@H]1C(=O)N[C@@H](C)C(=O)N[C@H](C(=O)N[C@@H](C)C(C)=O)Cc2ccc(OCCN)c(c2)-c2cc1ccc2OCCN.O=CO [Compound 270] |  |  |  | MIC (μg/mL) S. aureus [1, 7]: 0.25 µg/mL; MIC (μg/mL) E. coli ([2]; Table 1 protocol: serial 2-fold dilutions starting from 64 μg/ml): 8 µg/mL; MIC (μg/mL) (COL) [3, 7]: 0.063 µg/mL |
| CCCCCCCCCCNCCC(=O)N[C@@H](CCCCN)C(=O)N(C)[C@@H]1C(=O)N[C@@H](C)C(=O)N[C@H](C(=O)N[C@@H](C)C(=O)c2nnn[nH]2)Cc2ccc(OCCN)c(c2)-c2cc1ccc2OCCN.O=CO [Compound 271] | 0.047 µg/mL | 4 µg/mL | 0.016 µg/mL |  |
| CCCCc1ccc(-c2ccc(C(=O)N[C@@H](CCCCN)C(=O)N(C)[C@@H]3C(=O)N[C@@H](C)C(=O)N[C@H](C(=O)N[C@@H](C)C(C)=O)Cc4ccc(OCCN)c(c4)-c4cc3ccc4OCCN)cc2)cc1 [Compound 272] |  |  |  | MIC [1, 4]: 0.13 µg/mL (≈ 0.139 µM); MIC [2, 5]: 0.25 µg/mL (≈ 0.268 µM); MIC [3, 4]: 0.063 µg/mL (≈ 0.0675 µM) |
| C[C@@H]1NC(=O)[C@@H](N(C)C(=O)[C@H](CCCCN)NC(=O)c2ccc(-c3ccc(Cl)cc3)cc2)c2ccc(OCCN)c(c2)-c2cc(ccc2OCCN)C[C@@H](C(=O)N[C@@H](C)C(=O)c2[nH]ncc2[N+](=O)[O-])NC1=O [Compound 273] | 0.75 µg/mL (≈ 0.744 µM) | 4 µg/mL (≈ 3.97 µM) | 0.38 µg/mL (≈ 0.377 µM) |  |
| C[C@@H]1NC(=O)[C@@H](N(C)C(=O)[C@H](CCCCN)NC(=O)c2ccc(-c3ccc(Cl)cc3)cc2)c2ccc(OCCN)c(c2)-c2cc(ccc2OCCN)C[C@@H](C(=O)N[C@@H](C)C(=O)c2[nH]ncc2N)NC1=O [Compound 274] |  |  |  | MIC [1, 4]: > 4 µg/mL; MIC [2, 5]: 4 µg/mL (≈ 4.09 µM); MIC [3, 4]: 1.5 µg/mL (≈ 1.53 µM) |
| C[C@@H]1NC(=O)[C@@H](N(C)C(=O)[C@H](CCCCN)NC(=O)c2ccc(-c3ccc(Cl)cc3)cc2)c2ccc(OCCN)c(c2)-c2cc(ccc2OCCN)C[C@@H](C(=O)N[C@@H](C)C(=O)c2nc(Cl)n[nH]2)NC1=O [Compound 275] |  |  |  | MIC [1, 4]: 1 µg/mL (≈ 1 µM); MIC [2, 5]: 2 µg/mL (≈ 2 µM); MIC [3, 4]: 0.13 µg/mL (≈ 0.13 µM) |
| C[C@@H]1NC(=O)[C@@H](N(C)C(=O)[C@H](CCCCN)NC(=O)c2ccc(-c3ccc(Cl)cc3)cc2)c2ccc(OCCN)c(c2)-c2cc(ccc2OCCN)C[C@@H](C(=O)N[C@@H](C)C(=O)c2c([N+](=O)[O-])cnn2C)NC1=O [Compound 276] | 4 µg/mL (≈ 3.91 µM) | 4 µg/mL (≈ 3.91 µM) | 1.5 µg/mL (≈ 1.47 µM) |  |
